Experiments:
Format in all cases: in vivo
[1] = test system: barnyardgrass (Echinochloa crus-galli); assay: Test A preemergence, directed soil spray, visual injury rating; conditions: approx. 10 d, 0 = no effect, 100 = complete control
Method in brief: (§1)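 In a loam soil and sand blend, either planted seeds got a preemergence directed soil spray or plants at the one- to two-leaf stage (2 to 10 cm tall) were sprayed, using test chemicals in a non-phytotoxic solvent mixture with surfactant. After about 10 d in a greenhouse, injury was visually rated against untreated controls on a 0-100 scale.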

[2] = test system: foxtail, giant (giant foxtail, Setaria faberii); assay: as above; conditions: approx. 10 d, 0 = no effect, 100 = complete control
Method in brief: as §1

[3] = test system: kochia (Kochia scoparia); assay: as above; conditions: approx. 10 d, 0 = no effect, 100 = complete control
Method in brief: as §1

[4] = test system: pigweed (Amaranthus retroflexus); assay: as above; conditions: approx. 10 d, 0 = no effect, 100 = complete control
Method in brief: as §1

[5] = test system: ragweed (common ragweed, Ambrosia elation); assay: as above; conditions: approx. 10 d, 0 = no effect, 100 = complete control
Method in brief: as §1

[6] = test system: ryegrass, Italian (Italian ryegrass, Lolium multiflorum); assay: as above; conditions: approx. 10 d, 0 = no effect, 100 = complete control
Method in brief: as §1

[7] = test system: barnyardgrass (Echinochloa crus-galli); assay: Test A postemergence application, visual injury rating; conditions: approx. 10 d, 0 = no effect, 100 = complete control
Method in brief: as §1

[8] = test system: blackgrass (Alopecurus myosuroides); assay: as above; conditions: approx. 10 d, 0 = no effect, 100 = complete control
Method in brief: as §1

[9] = test system: corn (Zea mays); assay: as above; conditions: approx. 10 d, 0 = no effect, 100 = complete control
Method in brief: as §1

[10] = test system: foxtail, giant (giant foxtail, Setaria faberii); assay: as above; conditions: approx. 10 d, 0 = no effect, 100 = complete control
Method in brief: as §1

[11] = test system: galium (catchweed bedstraw, Galium aparine); assay: as above; conditions: approx. 10 d, 0 = no effect, 100 = complete control
Method in brief: as §1

[12] = test system: kochia (Kochia scoparia); assay: as above; conditions: approx. 10 d, 0 = no effect, 100 = complete control
Method in brief: as §1

[13] = test system: pigweed (Amaranthus retroflexus); assay: as above; conditions: approx. 10 d, 0 = no effect, 100 = complete control
Method in brief: as §1

[14] = test system: ragweed (common ragweed, Ambrosia elation); assay: as above; conditions: approx. 10 d, 0 = no effect, 100 = complete control
Method in brief: as §1

[15] = test system: ryegrass, Italian (Italian ryegrass, Lolium multiflorum); assay: as above; conditions: approx. 10 d, 0 = no effect, 100 = complete control
Method in brief: as §1

[16] = test system: wheat (Triticum aestivum); assay: as above; conditions: approx. 10 d, 0 = no effect, 100 = complete control
Method in brief: as §1

[17] = test system: barnyardgrass (Echinochloa crus-galli); assay: Test B flooded paddy test, visual plant response rating; conditions: 250 g ai/ha; applied to paddy water at 2-leaf stage; rated after 13 to 15 days; scale 0 to 100, 0 is no effect, 100 is complete control
Method in brief: (§2)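 Flooded 3 cm above soil; cpd added to paddy water; depth maintained; greenhouse 13–15 d; visual rating vs control, 0–100 (0 none, 100 complete control); "-" = not tested.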

[18] = test system: ducksalad (Heteranthera limosa); assay: as above; conditions: 250 g ai/ha; applied to paddy water at 2-leaf stage; rated after 13 to 15 days; scale 0 to 100, 0 is no effect, 100 is complete control
Method in brief: as §2

[19] = test system: rice (Oryza sativa); assay: as above; conditions: 250 g ai/ha; applied to paddy water at 2-leaf stage; rated after 13 to 15 days; scale 0 to 100, 0 is no effect, 100 is complete control
Method in brief: as §2

[20] = test system: sedge, umbrella (small-flower umbrella sedge, Cyperus difformis); assay: as above; conditions: 250 g ai/ha; applied to paddy water at 2-leaf stage; rated after 13 to 15 days; scale 0 to 100, 0 is no effect, 100 is complete control
Method in brief: as §2

Cc1ccc(C2Cn3c(C)nnc3C2C(=O)Nc2cccc(F)c2F)cc1C (stereo not drawn) [Compound 19]
70: Foxtail, Giant plant response rating (0 to 100 scale) ([2]; 125 g ai/ha) | Blackgrass plant response rating (0 to 100 scale) ([8]; 500 g ai/ha)
60: Barnyardgrass plant response rating (0 to 100 scale) ([7]; 125 g ai/ha)
90: Barnyardgrass plant response rating (0 to 100 scale) ([1]; 500 g ai/ha) | Foxtail, Giant plant response rating (0 to 100 scale) ([2]; 500 g ai/ha) | Barnyardgrass plant response rating (0 to 100 scale) ([7]; 500 g ai/ha)
20: Ryegrass, Italian plant response rating (0 to 100 scale) ([6]; 500 g ai/ha) | Kochia plant response rating (0 to 100 scale) ([12]; 500 g ai/ha) | Ragweed plant response rating (0 to 100 scale) ([14]; 500 g ai/ha) | Ryegrass, Italian plant response rating (0 to 100 scale) ([15]; 500 g ai/ha) | Plant response rating, Flood, Ducksalad [18]
80: Foxtail, Giant plant response rating (0 to 100 scale) ([10]; 500 g ai/ha)
30: Kochia plant response rating (0 to 100 scale) ([3]; 500 g ai/ha) | Corn plant response rating (0 to 100 scale) ([9]; 500 g ai/ha) | Foxtail, Giant plant response rating (0 to 100 scale) ([10]; 125 g ai/ha) | Wheat plant response rating (0 to 100 scale) ([16]; 500 g ai/ha) | Plant response rating, Flood, Barnyardgrass [17]
50: Barnyardgrass plant response rating (0 to 100 scale) ([1]; 125 g ai/ha) | Galium plant response rating (0 to 100 scale) ([11]; 500 g ai/ha)
0: Kochia plant response rating (0 to 100 scale) ([3]; 125 g ai/ha) | Pigweed plant response rating (0 to 100 scale) ([4]; 125 g ai/ha) | Pigweed plant response rating (0 to 100 scale) ([4]; 500 g ai/ha) | Ragweed plant response rating (0 to 100 scale) ([5]; 125 g ai/ha) | Ragweed plant response rating (0 to 100 scale) ([5]; 500 g ai/ha) | Ryegrass, Italian plant response rating (0 to 100 scale) ([6]; 125 g ai/ha) | Blackgrass plant response rating (0 to 100 scale) ([8]; 125 g ai/ha) | Corn plant response rating (0 to 100 scale) ([9]; 125 g ai/ha) | Galium plant response rating (0 to 100 scale) ([11]; 125 g ai/ha) | Kochia plant response rating (0 to 100 scale) ([12]; 125 g ai/ha) | Pigweed plant response rating (0 to 100 scale) ([13]; 125 g ai/ha) | Pigweed plant response rating (0 to 100 scale) ([13]; 500 g ai/ha) | Ragweed plant response rating (0 to 100 scale) ([14]; 125 g ai/ha) | Ryegrass, Italian plant response rating (0 to 100 scale) ([15]; 125 g ai/ha) | Wheat plant response rating (0 to 100 scale) ([16]; 125 g ai/ha) | Plant response rating, Flood, Rice [19] | Plant response rating, Flood, Sedge, Umbrella [20]

O=C(Nc1ccccc1F)C1c2nncn2CC1c1ccc(Cl)cc1 (stereo not drawn) [Compound 20]
50: Ragweed plant response rating (0 to 100 scale) ([5]; 500 g ai/ha) | Galium plant response rating (0 to 100 scale) ([11]; 500 g ai/ha)
60: Barnyardgrass plant response rating (0 to 100 scale) ([7]; 500 g ai/ha)
80: Corn plant response rating (0 to 100 scale) ([9]; 500 g ai/ha)
90: Foxtail, Giant plant response rating (0 to 100 scale) ([2]; 500 g ai/ha) | Kochia plant response rating (0 to 100 scale) ([3]; 500 g ai/ha)
70: Barnyardgrass plant response rating (0 to 100 scale) ([1]; 500 g ai/ha) | Foxtail, Giant plant response rating (0 to 100 scale) ([10]; 500 g ai/ha) | Plant response rating, Flood, Ducksalad [18]
30: Foxtail, Giant plant response rating (0 to 100 scale) ([2]; 125 g ai/ha) | Kochia plant response rating (0 to 100 scale) ([3]; 125 g ai/ha) | Galium plant response rating (0 to 100 scale) ([11]; 125 g ai/ha)
20: Barnyardgrass plant response rating (0 to 100 scale) ([1]; 125 g ai/ha) | Barnyardgrass plant response rating (0 to 100 scale) ([7]; 125 g ai/ha) | Corn plant response rating (0 to 100 scale) ([9]; 125 g ai/ha) | Foxtail, Giant plant response rating (0 to 100 scale) ([10]; 125 g ai/ha) | Ragweed plant response rating (0 to 100 scale) ([14]; 500 g ai/ha) | Wheat plant response rating (0 to 100 scale) ([16]; 500 g ai/ha)
40: Kochia plant response rating (0 to 100 scale) ([12]; 500 g ai/ha) | Plant response rating, Flood, Barnyardgrass [17]
0: Pigweed plant response rating (0 to 100 scale) ([4]; 125 g ai/ha) | Pigweed plant response rating (0 to 100 scale) ([4]; 500 g ai/ha) | Ragweed plant response rating (0 to 100 scale) ([5]; 125 g ai/ha) | Ryegrass, Italian plant response rating (0 to 100 scale) ([6]; 125 g ai/ha) | Ryegrass, Italian plant response rating (0 to 100 scale) ([6]; 500 g ai/ha) | Blackgrass plant response rating (0 to 100 scale) ([8]; 125 g ai/ha) | Blackgrass plant response rating (0 to 100 scale) ([8]; 500 g ai/ha) | Kochia plant response rating (0 to 100 scale) ([12]; 125 g ai/ha) | Pigweed plant response rating (0 to 100 scale) ([13]; 125 g ai/ha) | Pigweed plant response rating (0 to 100 scale) ([13]; 500 g ai/ha) | Ragweed plant response rating (0 to 100 scale) ([14]; 125 g ai/ha) | Ryegrass, Italian plant response rating (0 to 100 scale) ([15]; 125 g ai/ha) | Ryegrass, Italian plant response rating (0 to 100 scale) ([15]; 500 g ai/ha) | Wheat plant response rating (0 to 100 scale) ([16]; 125 g ai/ha) | Plant response rating, Flood, Rice [19] | Plant response rating, Flood, Sedge, Umbrella [20]

Cc1nnc2n1CC(c1ccc(Cl)cc1)C2C(=O)Nc1ccccc1F (stereo not drawn) [Compound 21]
0: Barnyardgrass plant response rating (0 to 100 scale) ([1]; 125 g ai/ha) | Foxtail, Giant plant response rating (0 to 100 scale) ([2]; 125 g ai/ha) | Kochia plant response rating (0 to 100 scale) ([3]; 125 g ai/ha) | Pigweed plant response rating (0 to 100 scale) ([4]; 125 g ai/ha) | Pigweed plant response rating (0 to 100 scale) ([4]; 500 g ai/ha) | Ragweed plant response rating (0 to 100 scale) ([5]; 125 g ai/ha) | Ragweed plant response rating (0 to 100 scale) ([5]; 500 g ai/ha) | Barnyardgrass plant response rating (0 to 100 scale) ([7]; 125 g ai/ha) | Blackgrass plant response rating (0 to 100 scale) ([8]; 125 g ai/ha) | Corn plant response rating (0 to 100 scale) ([9]; 125 g ai/ha) | Corn plant response rating (0 to 100 scale) ([9]; 500 g ai/ha) | Foxtail, Giant plant response rating (0 to 100 scale) ([10]; 125 g ai/ha) | Galium plant response rating (0 to 100 scale) ([11]; 125 g ai/ha) | Kochia plant response rating (0 to 100 scale) ([12]; 125 g ai/ha) | Kochia plant response rating (0 to 100 scale) ([12]; 500 g ai/ha) | Pigweed plant response rating (0 to 100 scale) ([13]; 125 g ai/ha) | Pigweed plant response rating (0 to 100 scale) ([13]; 500 g ai/ha) | Ragweed plant response rating (0 to 100 scale) ([14]; 125 g ai/ha) | Ragweed plant response rating (0 to 100 scale) ([14]; 500 g ai/ha) | Ryegrass, Italian plant response rating (0 to 100 scale) ([15]; 125 g ai/ha) | Wheat plant response rating (0 to 100 scale) ([16]; 125 g ai/ha) | Wheat plant response rating (0 to 100 scale) ([16]; 500 g ai/ha) | Plant response rating, Flood, Barnyardgrass [17] | Plant response rating, Flood, Rice [19] | Plant response rating, Flood, Sedge, Umbrella [20]
50: Galium plant response rating (0 to 100 scale) ([11]; 500 g ai/ha)
40: Barnyardgrass plant response rating (0 to 100 scale) ([1]; 500 g ai/ha) | Kochia plant response rating (0 to 100 scale) ([3]; 500 g ai/ha) | Ryegrass, Italian plant response rating (0 to 100 scale) ([6]; 125 g ai/ha) | Ryegrass, Italian plant response rating (0 to 100 scale) ([6]; 500 g ai/ha) | Barnyardgrass plant response rating (0 to 100 scale) ([7]; 500 g ai/ha) | Plant response rating, Flood, Ducksalad [18]
70: Foxtail, Giant plant response rating (0 to 100 scale) ([2]; 500 g ai/ha) | Foxtail, Giant plant response rating (0 to 100 scale) ([10]; 500 g ai/ha)
20: Blackgrass plant response rating (0 to 100 scale) ([8]; 500 g ai/ha) | Ryegrass, Italian plant response rating (0 to 100 scale) ([15]; 500 g ai/ha)

Reference: patent US10442807B2, “Aryl substituted bicyclic compounds as herbicides” (FMC Corporation, priority 2015, dated 2019)
